Values quoted from earlier work, collected in PMC7464159, “Triple Negative Breast Cancer and Breast Epithelial Cells Differentially Reprogram Glucose and Lipid Metabolism upon Treatment with Triterpenic Acids” (Biomolecules, 2020).

Tests used:
MDA-MB-231 cells [1] = test system: MDA-MB-231 cells; set-up: method as in PMID 22407812; details: BA 2.5–10 μM, 48 h; cited from earlier work
MDA-MB-231 cells [2] = test system: MDA-MB-231 cells; set-up: method as in PMID 28213701; details: MDA-MB-231, 24 h incubation; read-out: IC50 reported in the literature; cited from earlier work
MCF-10A cells = test system: MCF-10A cells; set-up: method as in PMID 29802332, PMID 30684465; details: previous studies; cited from earlier work

C=C(C)[C@@H]1CC[C@]2(C(=O)O)CC[C@]3(C)[C@H](CC[C@@H]4[C@@]5(C)CC[C@H](O)C(C)(C)[C@@H]5CC[C@]43C)[C@@H]12 [BA, betulinic acid]
cell cycle effect (MDA-MB-231 cells [1]): cell cycle arrest at G2/M phase | IC50 (MDA-MB-231 cells [2]): 30.6 µM | influence on MCF-10A cells viability (MCF-10A cells): no influence

C[C@H]1[C@H](C)CC[C@]2(C(=O)O)CC[C@]3(C)C(=CC[C@@H]4[C@@]5(C)CC[C@H](O)C(C)(C)[C@@H]5CC[C@]43C)[C@H]12 [UA, ursolic acid]
IC50 (MDA-MB-231 cells [2]): 22.9 µM
